Reference: article PMC6017000, “Distribution Assessments of Coumarins from Angelicae Pubescentis Radix in Rat Cerebrospinal Fluid and Brain by Liquid Chromatography Tandem Mass Spectrometry Analysis” (Molecules : A Journal of Synthetic Chemistry and Natural …, 2018)

Experiments:
[1] = Stability of QC samples in aCSF (freeze-thaw, room temperature); assay type: physicochemical; settings: percentage remaining, n = 5; for Stability room temperature: room temperature 24 h; for Stability Freeze-thaw: three freeze-thaw cycles
[2] = Stability of QC samples in rat brain homogenate (freeze-thaw, room temperature); assay type: physicochemical; settings: percentage remaining, n = 5; for Stability room temperature: room temperature 24 h; for Stability Freeze-thaw: three freeze-thaw cycles
[3] = Rat CSF distribution after oral administration of APRE (UPLC-MS/MS); settings: for total amount percentage of CSF/plasma: (0.48 × AUC0→∞/CSF)/(16 × AUC0→∞/plasma), oral APRE; for total amount percentage of CSF/plasma / AUC(0-inf) / AUC(0-t) / Cmax / Tmax / half-life: rat; for AUC(0-inf) / AUC(0-t) / Cmax / Tmax / half-life: CSF, po, 4 g/kg; for MRM response in CSF: rat CSF after oral APRE
Protocol: Aliquots of 50 μL CSF samples with IS (10 μL, 200 ng/mL) were extracted with 600 μL ethyl acetate.
The UPLC-MS/MS system consisted of a Shimadzu Nexera UPLC instrument connected to a Shimadzu LCMS-8050 mass spectrometer via the electrospray ionization interface (Shimadzu Corp., Kyoto, Japan). Samples were separated on an ACQUITY UPLC BEH RP18 column (2.1 × 100 mm, 1.7 µm, Waters, Milford, MA, USA) equipped with a BEH RP18 guard column (2.1 × 5 mm, 1.7 µm, Waters, Milford, MA, USA). The column temperature was 30 °C, and the flow rate was 0.4 mL/min. The sample injection volume was 5 µL. The mobile phases consisted of 0.1% (v/v) formic acid in water (A) and ACN (B). […] The precursor ion, product ion, Q1, Q3, CE and DT were optimized.
(§1) The time schedule included 9 time-points, and six rats were sampled at each time-point. The rats were fasted overnight with free access to water before the experiment. APRE was suspended with the normal saline and orally administered to the rats at a single dose of 4 g/kg. The animals had free access to water during the experiment.
Rats were anesthetized by an intraperitoneal dose of chloral hydrate (350 mg/kg) at 0.25, 0.5, 1, 1.5, 2, 4, 6, 8, 12 h after oral administration of APRE. A dorsal midline cutaneous incision was made, and the muscle at the craniocervical junction was bluntly dissected to expose the atlanto-occipital membrane. The cisterna magna was punctured with a thin syringe needle, and a microinjector connected with the needle was used to collect the interior CSF carefully [27]. Clear CSF was transferred to a clean microtube and frozen at −80 °C until further use. Blood contaminated samples were excluded.
(§2) Results were expressed as the mean ± standard deviation (SD). The UPLC-MS/MS data were processed with Labsolutions 5.65 software (Shimadzu Corp., Kyoto, Japan). The pharmacokinetic parameters were calculated with the Drug and Statistics 2.0 software (Mathematical Pharmacology Professional Committee of China, Shanghai, China).

[4] = Rat brain distribution after oral administration of APRE (UPLC-MS/MS); settings: for AUC0→t / AUC0→∞ / CLz/F / Vz/F: rat brain, oral APRE 4 g/kg, mean ± SD, n = 6; for Tmax / half-life / Kp / log BBexpt.: rat; for Tmax / half-life: brain; for Tmax / half-life / Kp: po, 4 g/kg; for Kp: brain/plasma; for log BBexpt.: log (AUC0→∞/brain/AUC0→∞/plasma), oral APRE
Protocol: Each weighed brain sample was homogenized with a 2-fold volume of normal saline solution. IS solution (10 μL, 200 ng/mL) was added to 300 μL of the homogenate. The mixture was then extracted with a 3-fold volume of ethyl acetate. The mixture was vortexed for 1 min and centrifuged at 16,000× g for 10 min. The supernatant was transferred out and dried under a gentle constant flow of nitrogen. The residue was then dissolved with 100 μL of MeOH and ultrasonically (power 250 W, frequency 40 KHz) extracted for 10 min. After centrifugation at 16,000× g for 10 min, the supernatant was drawn out into a clean vial, and 5 μL of each were injected into the UPLC–MS/MS system for analysis.
The UPLC-MS/MS system consisted of a Shimadzu Nexera UPLC instrument connected to a Shimadzu LCMS-8050 mass spectrometer via the electrospray ionization interface (Shimadzu Corp., Kyoto, Japan). Samples were separated on an ACQUITY UPLC BEH RP18 column (2.1 × 100 mm, 1.7 µm, Waters, Milford, MA, USA) equipped with a BEH RP18 guard column (2.1 × 5 mm, 1.7 µm, Waters, Milford, MA, USA). The column temperature was 30 °C, and the flow rate was 0.4 mL/min. The sample injection volume was 5 µL. The mobile phases consisted of 0.1% (v/v) formic acid in water (A) and ACN (B). The LC gradient elution program and mass working parameters were the same as our previous report [6]. […] The precursor ion, product ion, Q1, Q3, CE and DT were optimized.
as §1
Cardiac perfusion was carried out quickly with physiological saline after CSF collection at each time-point. The rat brains were separated, weighed and then stored at −80 °C until treatment.
as §2

[5] = parameters: method as in PMID 28654868; settings: rat plasma, oral APRE; cited from earlier work

| Compound | Stability room temperature ([2]; rat brain QC 80 ng/mL) | Stability Freeze-thaw ([2]; rat brain QC 80 ng/mL) | Stability room temperature ([2]; rat brain QC 160 ng/mL) | Stability Freeze-thaw ([2]; rat brain QC 160 ng/mL) | AUC(0-inf) [3] | AUC(0-t) [3] | Cmax [3] | Tmax [3] | half-life [3] | AUC0→t [4] | AUC0→∞ [4] | CLz/F [4] | Vz/F [4] | Tmax [4] | half-life [4] | Kp [4] | Stability room temperature ([1]; aCSF QC 5 ng/mL) | Stability Freeze-thaw ([1]; aCSF QC 5 ng/mL) | Stability room temperature ([2]; rat brain QC 5 ng/mL) | Stability Freeze-thaw ([2]; rat brain QC 5 ng/mL) | further results |
| --- | --- | --- | --- | --- | --- | --- | --- | --- | --- | --- | --- | --- | --- | --- | --- | --- | --- | --- | --- | --- | --- |
| O=c1ccc2cc3ccoc3cc2o1 [Compound 1, psoralen] | 99.53±12.87% | 96.22±7.77% | 96.99±3.28% | 96.30±8.22% | 51.3 ± 17.5 ng·h/mL | 20.4 ± 6.16 ng·h/mL | 4.49 ± 1.05 ng/mL | 4.67 ± 1.63 h | 3.52 ± 2.04 h | 351.63 ± 65.06 µg·h/kg | 371.95 ± 69.76 µg·h/kg | 2.88 ± 0.58 g/h/kg | 8.86 ± 3.08 g/kg | 0.33 ± 0.13 h | 2.15 ± 0.67 h | 0.56 | – | – | – | – | Stability room temperature ([1]; aCSF QC 10 ng/mL): 97.19±5.40%; Stability Freeze-thaw ([1]; aCSF QC 10 ng/mL): 96.14±6.21%; Stability room temperature ([1]; aCSF QC 40 ng/mL): 98.36±3.57%; Stability Freeze-thaw ([1]; aCSF QC 40 ng/mL): 96.98±5.79%; Stability room temperature ([1]; aCSF QC 80 ng/mL): 94.12±6.94%; Stability Freeze-thaw ([1]; aCSF QC 80 ng/mL): 86.27±13.45%; Stability room temperature ([2]; rat brain QC 10 ng/mL): 101.36±7.46%; Stability Freeze-thaw ([2]; rat brain QC 10 ng/mL): 97.11±8.58%; total amount percentage of CSF/plasma [3]: greater than 1% |
| COc1c2ccoc2cc2oc(=O)ccc12 [Compound 3, bergapten] | 86.01±3.16% | 85.30±8.42% | 86.84±6.63% | 90.70±9.46% | 41.3 ± 5.77 ng·h/mL | 27.1 ± 2.26 ng·h/mL | 3.95 ± 0.24 ng/mL | 1.46 ± 0.84 h | 6.72 ± 1.95 h | 418.20 ± 93.60 µg·h/kg | 449.85 ± 97.52 µg·h/kg | 3.22 ± 0.85 g/h/kg | 10.76 ± 4.73 g/kg | 1.21 ± 1.53 h | 2.34 ± 1.04 h | 0.08 | 106.76±8.57% | 92.34±7.48% | 88.02±2.73% | 89.97±6.29% | Stability room temperature ([1]; aCSF QC 40 ng/mL): 94.61±4.23%; Stability Freeze-thaw ([1]; aCSF QC 40 ng/mL): 93.24±6.30%; Stability room temperature ([1]; aCSF QC 80 ng/mL): 99.54±7.55%; Stability Freeze-thaw ([1]; aCSF QC 80 ng/mL): 97.23±5.17% |
| CC(C)(O)[C@@H]1Cc2c(ccc3ccc(=O)oc23)O1 [Compound 5, columbianetin] | – | – | – | – | 4140 ± 602 ng·h/mL | 3370 ± 604 ng·h/mL | 485 ± 91.4 ng/mL | 5 ± 1.1 h | 4.06 ± 2.42 h | 13,438.17 ± 2016.06 µg/kg·h | 16,664.04 ± 3662.67 µg/kg·h | 0.11 ± 0.02 g/h/kg | 0.57 ± 0.39 g/kg | 4 ± 1.79 h | 3.92 ± 3.33 h | 0.08 | 97.23±8.25% | 96.35±9.69% | 97.88±10.06% | 105.83±7.01% | Stability room temperature ([1]; aCSF QC 320 ng/mL): 93.93±2.94%; Stability Freeze-thaw ([1]; aCSF QC 320 ng/mL): 93.46±8.56%; Stability room temperature ([1]; aCSF QC 640 ng/mL): 99.45±9.62%; Stability Freeze-thaw ([1]; aCSF QC 640 ng/mL): 93.87±4.82%; Stability room temperature ([2]; rat brain QC 1200 ng/mL): 89.46±3.10%; Stability Freeze-thaw ([2]; rat brain QC 1200 ng/mL): 91.69±3.42%; Stability room temperature ([2]; rat brain QC 2400 ng/mL): 91.21±6.60%; Stability Freeze-thaw ([2]; rat brain QC 2400 ng/mL): 87.85±9.09%; plasma Cmax [5]: 2240.32 ± 1031.92 ng/mL |
| C/C=C(/C)C(=O)OC(C)(C)[C@@H]1Cc2c(ccc3ccc(=O)oc23)O1 [Compound 7, columbianadin] | 92.73±3.53% | 94.79±6.28% | 91.16±4.37% | 90.93±4.84% | – | – | – | – | – | – | – | – | – | – | – | – | – | – | – | – | Stability room temperature ([2]; rat brain QC 10 ng/mL): 96.82±4.84%; Stability Freeze-thaw ([2]; rat brain QC 10 ng/mL): 101.64±6.63%; MRM response in CSF [3]: under LLOQ; time after oral administration within which detected in brain ([4]; rat brain after oral APRE, MRM response under LLOQ at following time points): ≤ 4 h |
| CC(C)(O)[C@H](O)COc1c2ccoc2cc2oc(=O)ccc12 [Compound 8, oxypeucedanin hydrate] | 96.02±6.30% | 94.94±10.27% | 97.99±6.44% | 102.42±7.10% | 73.6 ± 11.8 ng·h/mL | 54 ± 8.2 ng·h/mL | 7.47 ± 1.69 ng/mL | 2 ± 1.14 h | 6.32 ± 1.95 h | 313.39 ± 59.25 µg·h/kg | 397.36 ± 66.83 µg·h/kg | 2.04 ± 0.34 g/h/kg | 14.45 ± 3.95 g/kg | 0.96 ± 0.86 h | 4.91 ± 0.91 h | – | 96.96±3.22% | 97.57±5.59% | 97.72±9.35% | 96.57±11.87% | Stability room temperature ([1]; aCSF QC 40 ng/mL): 95.09±3.26%; Stability Freeze-thaw ([1]; aCSF QC 40 ng/mL): 94.73±7.34%; Stability room temperature ([1]; aCSF QC 80 ng/mL): 103.37±5.33%; Stability Freeze-thaw ([1]; aCSF QC 80 ng/mL): 95.96±5.37%; log BBexpt. [4]: −0.16 |
| COc1ccc2ccc(=O)oc2c1CC=C(C)C [Compound 10, osthole] | 101.64±8.78% | 98.42±10.02% | 96.43±4.95% | 98.13±6.85% | 30.5 ± 1.53 ng·h/mL | 27.7 ± 2.88 ng·h/mL | 4.31 ± 1.49 ng/mL | 2.83 ± 2.84 h | 3.19 ± 1.16 h | 1327.91 ± 341.99 µg·h/kg | 2105.63 ± 1100.15 µg·h/kg | 13.96 ± 7.04 g/h/kg | 60.18 ± 25.11 g/kg | 0.35 ± 0.14 h | 5.36 ± 2.15 h | 0.15 | 95.92±3.20% | 94.43±7.49% | 99.12±3.06% | 95.53±4.36% | Stability room temperature ([1]; aCSF QC 40 ng/mL): 94.93±5.05%; Stability Freeze-thaw ([1]; aCSF QC 40 ng/mL): 95.90±8.12%; Stability room temperature ([1]; aCSF QC 80 ng/mL): 93.50±6.38%; Stability Freeze-thaw ([1]; aCSF QC 80 ng/mL): 97.71±2.91% |
| COc1ccc2ccc(=O)oc2c1CC(O)C(C)(C)O (centres unmarked) [Compound 11, Meranzin hydrate] | – | – | – | – | 754 ± 142 ng·h/mL | 676 ± 108 ng·h/mL | 129 ± 20.2 ng/mL | 2.17 ± 0.98 h | 3.37 ± 0.75 h | 1752.16 ± 249.82 µg·h/kg | 1948.10 ± 305.84 µg·h/kg | 0.86 ± 0.13 g/h/kg | 4.46 ± 1.60 g/kg | 1.29 ± 1.5 h | 3.64 ± 1.4 h | – | 92.02±3.40% | 96.16±10.07% | 97.21±8.86% | 94.71±4.63% | Stability room temperature ([1]; aCSF QC 120 ng/mL): 99.09±5.56%; Stability Freeze-thaw ([1]; aCSF QC 120 ng/mL): 95.58±7.24%; Stability room temperature ([1]; aCSF QC 240 ng/mL): 103.10±9.99%; Stability Freeze-thaw ([1]; aCSF QC 240 ng/mL): 94.40±4.03%; Stability room temperature ([2]; rat brain QC 200 ng/mL): 96.58±7.80%; Stability Freeze-thaw ([2]; rat brain QC 200 ng/mL): 97.28±10.13%; Stability room temperature ([2]; rat brain QC 400 ng/mL): 95.82±9.16%; Stability Freeze-thaw ([2]; rat brain QC 400 ng/mL): 104.50±7.46%; log BBexpt. [4]: −0.10 |
| CC(C)(O)[C@H]1Cc2cc3ccc(=O)oc3cc2O1 [Compound 12, nodakenetin] | – | – | – | – | 625 ± 249 ng·h/mL | 331 ± 43.2 ng·h/mL | 43.5 ± 5.98 ng/mL | 6.33 ± 0.82 h | 6.69 ± 2.25 h | 933.83 ± 66.51 µg·h/kg | 1560.07 ± 730.91 µg·h/kg | 0.779 ± 0.26 g/h/kg | 6.30 ± 2.22 g/kg | 5.33 ± 1.03 h | 6.27 ± 3.19 h | 0.01 | 102.33±8.37% | 101.36±5.89% | 94.83±5.41% | 98.18±2.46% | Stability room temperature ([1]; aCSF QC 120 ng/mL): 101.14±5.08%; Stability Freeze-thaw ([1]; aCSF QC 120 ng/mL): 92.78±5.37%; Stability room temperature ([1]; aCSF QC 240 ng/mL): 99.91±7.69%; Stability Freeze-thaw ([1]; aCSF QC 240 ng/mL): 95.63±4.23%; Stability room temperature ([2]; rat brain QC 200 ng/mL): 97.69±5.38%; Stability Freeze-thaw ([2]; rat brain QC 200 ng/mL): 101.08±9.25%; Stability room temperature ([2]; rat brain QC 400 ng/mL): 95.56±2.64%; total amount percentage of CSF/plasma [3]: greater than 1% |
| O=c1ccc2c(O)c3ccoc3cc2o1 [bergaptol] | – | – | – | – | – | – | – | – | – | – | – | – | – | – | – | – | – | – | – | – | MRM response in CSF [3]: under LLOQ; MRM response in brain ([4]; rat brain after oral APRE): under LLOQ |
| O=c1ccc2ccc(O)cc2o1 [umbelliferone] | – | – | – | – | – | – | – | – | – | – | – | – | – | – | – | – | – | – | – | – | MRM response in CSF [3]: under LLOQ; MRM response in brain ([4]; rat brain after oral APRE): under LLOQ |
